± gives the uncertainty stated by the source.
Assay: xn = mol fraction of the nth substance listed

CC(=O)O + Cc1ccccc1
viscosity [mPa·s]
Conditions | 293.15 K | 303.15 K | 313.15 K | 323.15 K
101 kPa, x2 = 0.0642 | – | – | 0.9448 ± 0.025 | 0.8122 ± 0.022
101 kPa, x2 = 0.2052 | – | – | 0.6513 ± 0.017 | 0.4846 ± 0.013
101 kPa, x2 = 0.7929 | – | – | 0.4859 ± 0.013 | 0.4171 ± 0.011
101.33 kPa, x2 = 0.022 | 1.143 ± 0.056 | 0.9772 ± 0.049 | 0.8709 ± 0.044 | 0.7709 ± 0.04
101.33 kPa, x2 = 0.0569 | 1.06 ± 0.052 | 0.907 ± 0.046 | 0.8111 ± 0.041 | 0.7288 ± 0.038
101.33 kPa, x2 = 0.1191 | 0.9245 ± 0.046 | 0.8216 ± 0.042 | 0.731 ± 0.038 | 0.641 ± 0.034
101.33 kPa, x2 = 0.1879 | 0.8359 ± 0.043 | 0.741 ± 0.038 | 0.6554 ± 0.035 | 0.59 ± 0.032
101.33 kPa, x2 = 0.2626 | 0.7694 ± 0.04 | 0.6753 ± 0.036 | 0.603 ± 0.032 | 0.5446 ± 0.03
101.33 kPa, x2 = 0.352 | 0.7293 ± 0.038 | 0.6216 ± 0.033 | 0.561 ± 0.031 | 0.5072 ± 0.028
101.33 kPa, x2 = 0.4459 | 0.6757 ± 0.036 | 0.5903 ± 0.032 | 0.522 ± 0.029 | 0.474 ± 0.027
101.33 kPa, x2 = 0.4893 | 0.6542 ± 0.035 | 0.5766 ± 0.031 | 0.5131 ± 0.029 | 0.4647 ± 0.026
101.33 kPa, x2 = 0.5579 | 0.6349 ± 0.034 | 0.5578 ± 0.03 | 0.5022 ± 0.028 | 0.4559 ± 0.026
101.33 kPa, x2 = 0.6302 | 0.6233 ± 0.033 | 0.5464 ± 0.03 | 0.491 ± 0.028 | 0.4486 ± 0.026
101.33 kPa, x2 = 0.6817 | 0.6144 ± 0.033 | 0.5382 ± 0.03 | 0.4828 ± 0.027 | 0.4384 ± 0.025
101.33 kPa, x2 = 0.7391 | 0.6055 ± 0.032 | 0.5304 ± 0.029 | 0.4757 ± 0.027 | 0.4319 ± 0.025
101.33 kPa, x2 = 0.861 | 0.5941 ± 0.032 | 0.5201 ± 0.029 | 0.4619 ± 0.026 | 0.42 ± 0.025
101.33 kPa, x2 = 0.9262 | 0.588 ± 0.032 | 0.513 ± 0.029 | 0.4611 ± 0.026 | 0.4194 ± 0.025
101.33 kPa, x2 = 0.9645 | 0.5842 ± 0.032 | 0.5088 ± 0.028 | 0.4574 ± 0.026 | 0.4163 ± 0.024

ClCCl + Cc1ccccc1C
101 kPa
Conditions | viscosity [mPa·s]
293.15 K, x1 = 0.3503 | 0.679 ± 0.018
293.15 K, x1 = 0.4307 | 0.648 ± 0.017
293.15 K, x1 = 0.4992 | 0.623 ± 0.016
293.15 K, x1 = 0.5657 | 0.594 ± 0.015
293.15 K, x1 = 0.6558 | 0.561 ± 0.015
293.15 K, x1 = 0.7632 | 0.521 ± 0.014
293.15 K, x1 = 0.8524 | 0.49 ± 0.013
298.15 K, x1 = 0.2305 | 0.677 ± 0.018
298.15 K, x1 = 0.3611 | 0.634 ± 0.016
298.15 K, x1 = 0.449 | 0.602 ± 0.016
298.15 K, x1 = 0.5343 | 0.572 ± 0.015
298.15 K, x1 = 0.6293 | 0.542 ± 0.014
298.15 K, x1 = 0.696 | 0.519 ± 0.014
298.15 K, x1 = 0.7684 | 0.494 ± 0.013
298.15 K, x1 = 0.826 | 0.476 ± 0.012
298.15 K, x1 = 0.8658 | 0.465 ± 0.012
303.15 K, x1 = 0.236 | 0.644 ± 0.017
303.15 K, x1 = 0.3688 | 0.602 ± 0.016
303.15 K, x1 = 0.4846 | 0.561 ± 0.015
303.15 K, x1 = 0.5645 | 0.531 ± 0.014
303.15 K, x1 = 0.6373 | 0.507 ± 0.013
303.15 K, x1 = 0.7091 | 0.483 ± 0.013
303.15 K, x1 = 0.7766 | 0.462 ± 0.012
303.15 K, x1 = 0.8368 | 0.444 ± 0.012
303.15 K, x1 = 0.861 | 0.437 ± 0.011

C[Si]1(C)O[Si](C)(C)O[Si](C)(C)O[Si](C)(C)O1 + ClC(Cl)(Cl)Cl
101 kPa
Conditions | viscosity [mPa·s]
298.15 K, x1 = 0.1089 | 1.044 ± 0.011
298.15 K, x1 = 0.1965 | 1.14 ± 0.013
298.15 K, x1 = 0.289 | 1.245 ± 0.016
298.15 K, x1 = 0.4288 | 1.407 ± 0.022
298.15 K, x1 = 0.5841 | 1.595 ± 0.029
298.15 K, x1 = 0.659 | 1.694 ± 0.033
298.15 K, x1 = 0.8443 | 1.95 ± 0.045
298.15 K, x1 = 0.9264 | 2.073 ± 0.051
298.15 K, x1 = 0.9773 | 2.147 ± 0.055
308.15 K, x1 = 0.1756 | 0.964 ± 0.012
308.15 K, x1 = 0.3239 | 1.101 ± 0.016
308.15 K, x1 = 0.5732 | 1.339 ± 0.025
308.15 K, x1 = 0.729 | 1.493 ± 0.032
308.15 K, x1 = 0.8636 | 1.646 ± 0.039
308.15 K, x2 = 0.0183 | 1.786 ± 0.047
318.15 K, x1 = 0.1779 | 0.844 ± 0.01
318.15 K, x1 = 0.3249 | 0.956 ± 0.014
318.15 K, x1 = 0.5816 | 1.148 ± 0.022
318.15 K, x1 = 0.7307 | 1.27 ± 0.027
318.15 K, x1 = 0.8652 | 1.388 ± 0.033
318.15 K, x2 = 0.0179 | 1.498 ± 0.039

ClCCl + ClC(Cl)(Cl)Cl
Conditions | viscosity [mPa·s]
303.15 K, 101.3 kPa, x2 = 0.506 | 0.5396 ± 0.0046

CC(=O)O + ClC(Cl)Cl
Conditions | viscosity [mPa·s]
298.15 K, 101.33 kPa, x2 = 0.0468 | 1.087 ± 0.01
298.15 K, 101.33 kPa, x2 = 0.1013 | 0.997 ± 0.009
298.15 K, 101.33 kPa, x2 = 0.1021 | 1.022 ± 0.01
298.15 K, 101.33 kPa, x2 = 0.1487 | 0.954 ± 0.009
298.15 K, 101.33 kPa, x2 = 0.203 | 0.925 ± 0.009
298.15 K, 101.33 kPa, x2 = 0.2312 | 0.882 ± 0.008
298.15 K, 101.33 kPa, x2 = 0.2997 | 0.837 ± 0.008
298.15 K, 101.33 kPa, x2 = 0.3403 | 0.805 ± 0.008
298.15 K, 101.33 kPa, x2 = 0.4207 | 0.759 ± 0.007
298.15 K, 101.33 kPa, x2 = 0.4784 | 0.731 ± 0.007
298.15 K, 101.33 kPa, x2 = 0.5017 | 0.717 ± 0.007
298.15 K, 101.33 kPa, x2 = 0.5627 | 0.68 ± 0.007
298.15 K, 101.33 kPa, x2 = 0.6215 | 0.657 ± 0.007
298.15 K, 101.33 kPa, x2 = 0.7312 | 0.613 ± 0.006
298.15 K, 101.33 kPa, x2 = 0.8031 | 0.589 ± 0.006
298.15 K, 101.33 kPa, x2 = 0.8931 | 0.56 ± 0.006
303.15 K, 101 kPa, x2 = 0.0819 | 0.8986 ± 0.024
303.15 K, 101 kPa, x2 = 0.25 | 0.7244 ± 0.019
303.15 K, 101 kPa, x2 = 0.7464 | 0.5285 ± 0.014
313.15 K, 101 kPa, x2 = 0.0819 | 0.8287 ± 0.022
313.15 K, 101 kPa, x2 = 0.25 | 0.6532 ± 0.017
313.15 K, 101 kPa, x2 = 0.7464 | 0.484 ± 0.013
323.15 K, 101 kPa, x2 = 0.0819 | 0.7516 ± 0.02
323.15 K, 101 kPa, x2 = 0.25 | 0.5982 ± 0.016
323.15 K, 101 kPa, x2 = 0.7464 | 0.4537 ± 0.012

ClCCCl + ClC(Cl)Cl
303.15 K, 101.3 kPa
Conditions | viscosity [mPa·s]
x1 = 0.0711 | 0.524 ± 0.0045
x1 = 0.1645 | 0.5402 ± 0.0046
x1 = 0.216 | 0.5493 ± 0.0046
x1 = 0.3322 | 0.5723 ± 0.0048
x1 = 0.4444 | 0.5947 ± 0.005
x1 = 0.5227 | 0.6115 ± 0.0051
x1 = 0.6269 | 0.6349 ± 0.0053
x1 = 0.7591 | 0.6659 ± 0.0055
x1 = 0.7901 | 0.6733 ± 0.0056
x1 = 0.8637 | 0.692 ± 0.0057
x1 = 0.935 | 0.7102 ± 0.0058

ClCCl + ClC(Cl)Cl
Conditions | viscosity [mPa·s]
303.15 K, 101.3 kPa, x1 = 0.4966 | 0.4521 ± 0.0039
